{"source": "ChEMBL document CHEMBL1151141", "about": "“Antineoplastic agents, 162. Zephyranthes candida” (1990)", "test_system": "P388", "experiment": "Cytotoxicity against mouse P388 cells", "format": "functional", "conditions": "read-out: ED50 (the source's name)", "data": [{"molecule": "O=C1N[C@H]2[C@H](O)[C@H](O)[C@@H](O)C[C@@H]2c2cc3c(c(O)c21)OCO3", "values": [{"measurement": "EC50", "value": 3.2, "unit": "ng/mL"}]}, {"molecule": "CC(=O)Oc1c2c(cc3c1C(=O)N[C@H]1[C@H](OC(C)=O)[C@H](OC(C)=O)[C@@H](OC(C)=O)C[C@H]31)OCO2", "values": [{"measurement": "EC50", "value": 3.2, "unit": "ng/mL"}]}, {"molecule": "O=C1N[C@H]2[C@H](O)[C@H](O)[C@@H](O)C[C@H]2c2cc3c(c(O)c21)OCO3", "values": [{"measurement": "EC50", "value": 24, "unit": "ng/mL"}]}]}
